Here are results for 9 compounds from patent US20130274294A1, “4-(Hetero)Aryl-Ethynyl-Octahydro-Indole-1-Esters” (priority 2010, published 2013).

One series has as its target T1, human mGluR5a receptors (Homo sapiens, UniProt P41594).
T1 construct: expressed in transfected cells; host or cells: L(tk-) cells (mouse fibroblast line)
Kind of series: Inhibition of glutamate-induced elevation of intracellular calcium concentration in L(tk-) cells expressing human mGluR5a receptors. Type of series: cell-based. To be noted: agonist glutamate. The text has this:
This can be determined in vitro, for example, at recombinant human mGluR5, using different procedures like, for example, measurement of the inhibition of the agonist induced elevation of intracellular Ca^2+ concentration in accordance with L. P. Daggett et al., Neuropharm. Vol. 34, pages 871-886 (1995), P. J. Flor et al., J. Neurochem. Vol. 67, pages 58-63 (1996) or by determination to what extent the agonist induced elevation of the inositol phosphate turnover is inhibited as described by T. Knoepfel et al., Eur. J. Pharmacol. Vol. 288, pages 389-392 (1994), L. P. Daggett et al., Neuropharm. Vol. 67, pages 58-63 (1996) and references cited therein. Isolation and expression of human mGluR subtypes are described in U.S. Pat. No. 5,521,297.
Activity of compounds of the present invention was examined by determination to what extent the glutamate-induced elevation of the intracellular calcium concentration in L(tk-) cells expressing human mGluR5a receptors (see L. P. Daggett et al., Neuropharm. Vol. 34, pages 871-886, 1995) is inhibited by utilizing methods as described e.g. by L. P. Daggett et al., Neuropharm. Vol. 34, pages 871-886 (1995) and P. J. Flor et al., J. Neurochem. Vol. 67, pages 58-63 (1996).
The table below represents IC50 values of the inhibition of the glutamate-induced elevation of the intracellular calcium concentration.
(Calcium flux is commonly read through the fluorescence of an indicator in the cells.)

Series [1] is described as follows: Solubility in Cl-free phosphate buffer (0.067 M), pH 6.8. Type of series: physicochemical. To be noted: pH 6.8, aqueous buffer. On the procedure:
Solubility of compounds of the invention was determined in the following buffer: Cl-free phosphate buffer (0.067 M) is made from KH2PO4 solution and titrated to pH 6.8 with NaOH. The table below represents solubility values of compounds of the invention in the above buffer.

Values after ≈ are worked out from the molar mass of the structure shown. Some results are limits rather than exact numbers.

T1 sequence (P41594 21-1180 isoform P41594-2 limits assumed): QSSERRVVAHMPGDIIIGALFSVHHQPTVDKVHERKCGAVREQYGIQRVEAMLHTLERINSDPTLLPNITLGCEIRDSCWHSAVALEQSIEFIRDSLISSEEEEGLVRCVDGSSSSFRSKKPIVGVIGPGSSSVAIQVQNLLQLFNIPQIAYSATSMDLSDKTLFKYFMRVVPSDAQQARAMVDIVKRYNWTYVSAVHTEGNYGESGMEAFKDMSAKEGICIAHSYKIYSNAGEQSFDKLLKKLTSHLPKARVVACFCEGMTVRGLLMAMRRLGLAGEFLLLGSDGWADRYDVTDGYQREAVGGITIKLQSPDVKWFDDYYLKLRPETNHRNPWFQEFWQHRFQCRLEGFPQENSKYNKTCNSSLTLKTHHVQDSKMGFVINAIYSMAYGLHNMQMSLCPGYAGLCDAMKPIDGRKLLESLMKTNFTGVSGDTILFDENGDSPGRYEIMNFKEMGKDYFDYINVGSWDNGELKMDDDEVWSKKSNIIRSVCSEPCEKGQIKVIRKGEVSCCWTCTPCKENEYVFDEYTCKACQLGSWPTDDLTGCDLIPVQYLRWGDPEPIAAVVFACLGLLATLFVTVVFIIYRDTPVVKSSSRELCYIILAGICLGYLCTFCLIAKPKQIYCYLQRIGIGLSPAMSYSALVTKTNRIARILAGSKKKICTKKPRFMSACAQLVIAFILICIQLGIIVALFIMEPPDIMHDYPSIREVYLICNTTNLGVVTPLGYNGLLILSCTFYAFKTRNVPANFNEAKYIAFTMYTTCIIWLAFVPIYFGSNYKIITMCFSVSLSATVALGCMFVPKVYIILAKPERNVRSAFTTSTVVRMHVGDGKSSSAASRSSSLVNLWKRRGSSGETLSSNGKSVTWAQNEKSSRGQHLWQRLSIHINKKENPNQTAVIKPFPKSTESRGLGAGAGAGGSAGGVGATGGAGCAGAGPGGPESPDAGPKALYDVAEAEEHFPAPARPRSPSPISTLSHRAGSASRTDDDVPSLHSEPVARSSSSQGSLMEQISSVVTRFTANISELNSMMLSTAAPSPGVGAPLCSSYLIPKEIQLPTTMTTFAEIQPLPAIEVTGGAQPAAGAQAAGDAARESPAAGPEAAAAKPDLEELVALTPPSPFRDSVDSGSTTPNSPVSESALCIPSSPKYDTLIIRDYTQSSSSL

The IC50 is the concentration at which inhibition is half-maximal. As for `COC(=O)N1CC[C@@H]2[C@H]1CCC[C@@]2(O)C#Cc1cccc(C)n1` [Example 4, (3aR,4S,7aR)-methyl 4-hydroxy-4-((6-methylpyridin-2-yl)ethynyl)octahydro-1H-indole-1-carboxylate], the IC50 at human mGluR5a receptors amounted to 1430 nM. As usually defined, the solubility is the dissolved amount per volume that the medium holds. A low value points to little dissolved substance. For the compound `COC(=O)N1CC[C@@H]2[C@H]1CCC[C@@]2(O)C#Cc1ccnc(Cl)c1` [Example 5, (3aR,4S,7aR)-methyl 4-((2-chloropyridin-4-yl)ethynyl)-4-hydroxyoctahydro-1H-indole-1-carboxylate], the IC50 on human mGluR5a receptors stood at 146 nM. This compound also came in with a solubility in series [1] of 175 µg/mL (≈ 523 µM). `COC(=O)N1CC[C@@H]2[C@H]1CCC[C@@]2(O)C#Cc1cncc(C)c1` [Example 2, (3aR,4S,7aR)-methyl 4-hydroxy-4-((5-methylpyridin-3-yl)ethynyl)octahydro-1H-indole-1-carboxylate]: the IC50 on human mGluR5a receptors worked out at 1100 nM. This compound came in with a solubility in series [1] above 300 µg/mL. Regarding `COC(=O)N1CC[C@@H]2[C@H]1CCC[C@@]2(O)C#Cc1ccnc(C)c1` [Example 3, (3aR,4S,7aR)-methyl 4-hydroxy-4-((2-methylpyridin-4-yl)ethynyl)octahydro-1H-indole-1-carboxylate], the IC50 at human mGluR5a receptors worked out at 530 nM. In addition, the solubility in series [1] was above 300 µg/mL. In the case of `COC(=O)N1CC[C@@H]2[C@H]1CCC[C@@]2(N)C#Cc1cccc(C)c1` [Example 8, (3aR,4S,7aR)-methyl 4-amino-4-(m-tolylethynyl)octahydro-1H-indole-1-carboxylate], the half-maximal inhibitory concentration (IC50) on human mGluR5a receptors amounted to 330 nM. This compound also had a solubility in series [1] above 300 µg/mL. For `CCOC(=O)N1CC[C@@H]2[C@H]1CCC[C@@]2(N)C#Cc1cccc(C)c1` [Example 9, (3aR,4S,7aR)-ethyl 4-amino-4-(m-tolylethynyl)octahydro-1H-indole-1-carboxylate], the IC50 at human mGluR5a receptors is 710 nM. In series [1], this compound showed a solubility above 300 µg/mL.

`COC(=O)N1CC[C@@H]2[C@H]1CCC[C@@]2(O)C#Cc1cc(C)ccn1` [Example 6, (3aR,4S,7aR)-methyl 4-hydroxy-4-((4-methylpyridin-2-yl)ethynyl)octahydro-1H-indole-1-carboxylate]: the IC50 at human mGluR5a receptors was 740 nM. The compound also had a solubility in series [1] of 153 µg/mL (≈ 487 µM). Consider `COC(=O)N1CC[C@@H]2[C@H]1CCC[C@@]2(O)C#Cc1cccc(Cl)c1` [Example 1, (3aR,4S,7aR)-methyl 4-((3-chlorophenyl)ethynyl)-4-hydroxyoctahydro-1H-indole-1-carboxylate], for which the IC50 on human mGluR5a receptors is 16 nM. The compound further showed a solubility in series [1] of 103 µg/mL (≈ 309 µM). With `COC(=O)N1CC[C@@H]2[C@H]1CCC[C@@]2(O)C#Cc1csc(C)n1` [Example 7, (3aR,4S,7aR)-methyl 4-hydroxy-4-((2-methylthiazol-4-yl)ethynyl)octahydro-1H-indole-1-carboxylate], on human mGluR5a receptors, the IC50 was found to be 470 nM. In addition, in series [1], the solubility is above 300 µg/mL.
